Where two headings read alike, the source gives them in different places. Marks after values point to notes of the source that are not given here.
Legend:
[1] = Pharmacokinetic test in rats; format: in vivo, rat; conditions: male SD rats
Description: Male SD rats (weighing 180-260 g) were administered with compound (I) at a dose of 1.0 mg/kg by tail vein injection and at a dose of 10.0 mg/kg orally. Each group consisted of 3 animals. The solvent for administration was a solution of 5% DMSO+5% polyethoxylated castor oil (Cremophor EL) in normal saline. The rats were fasted for about 12 h before administration and were given ad libitum access to food 4 h after administration, and water was available all the time. Blood was collected from the orbit at about 0.2 mL before administration and 5 min, 15 min, 30 min, 1 h, 2 h, 4 h, 6 h, 8 h, and 24 h after administration. The samples were placed in EDTA-K2 anticoagulant EP tubes in an ice bath, and subjected to low-speed centrifugation at 4° C. and 3500 rpm for 10 min to isolate plasma, which was then stored at −20° C. before analysis. The concentration of compound (I) in the plasma was quantified by liquid chromatography-tandem mass spectrometry (LC-MS/MS). Pharmacokinetic parameters were calculated from the analysis results of the samples using WinNonlin software.

[2] = Distribution in brain tissues of rats (plasma and brain concentration); format: in vivo; conditions: rat, po, male SD rats, 20 mg/kg p.o.
Description: Plasma and brain tissue samples were collected from the animals at 0.5 h, 1 h, 4 h, and 24 h after administration. Collection of plasma: 0.2 mL of whole blood was collected by using an EP tube containing EDTA-K2 and centrifuged at 3500 g for 10 min, and then the upper plasma was collected and stored at −20° C. Collection of brain tissue: after the animals were euthanized, a proper amount of brain tissues were weighed out and homogenized with methanol in water (80%, w/v) at a ratio of 1:4. The concentration of compound in the plasma and brain tissue samples was quantified by liquid chromatography-tandem mass spectrometry (LC-MS/MS).

[3] = test system: Middle cerebral artery occlusion (MCAO) models of SD rats; experiment: Rat cerebral stroke model (MCAO), 28 days, pathological examination of brain; format: in vivo
Description: Middle cerebral artery occlusion (MCAO) models of SD rata were constructed by using the suture occlusion method. The rats were administered with the test compound for 28 consecutive days. The pharmacodynamic evaluation on the test compound for cerebral stroke was obtained based on general observation and neurobehavioral assessment. After anesthesia induction with 3.0% isoflurane in SD rats (240-280 g), the operation was performed and the right common carotid artery (CCA), and the right-side neck area was dissected to reveal the right common carotid artery (CCA), external carotid artery (ECA) and internal carotid artery (ICA). The ECA was ligated. The ICA was temporarily occluded. Sutures were threaded at both the proximal end and the distal end of CCA. The distal end was securely ligated, and a loosely tied knot was placed at the proximal end. A small incision was made on the CCA between these two sutures. A No. 4-0 suture was inserted through the incision of CCA and slowly and gently pushed into the ICA. The threading was stopped temporarily when reaching the artery clamp of ICA. The pre-ligation suture was further tightened. The artery clamp blocking the blood flow in the ICA was removed, allowing the suture occlusion to be advanced into the ICA until it entered the intracranial region. […] The insertion was stopped at the moment, and the time was recorded. The artery clamp on the CCA was removed and the incision was closed after no active bleeding was observed. The ischemic rats were placed at room temperature to keep their body temperature at 37° C., and anesthesia induction could be carried out 120 min later. The suture was slowly and gradually withdrawn when the rats were maintained under anesthesia, so that the proximal end of the suture returned to the ECA, thereby initiating reperfusion of the middle cerebral artery. Animals received the designated dosage immediately (within 10 min) after reperfusion. This dosing regimen continued once daily for a duration of 28 days, with the day of operation being defined as D1 (Day 1). A total of 5 groups were set, sham surgery group, model control group, NBP group (60 mg/kg, p.o., q.d), compound (I) low dose p.o. group (6 mg/kg, p.o., q.d), and a compound (I) high dose p.o. group (20 mg/kg, p.o., q.d). During administration, all animals were subjected to grid walking tests (D7, D14, D21, and D28, 4 times in total) and novel object recognition tests (adaptation for novel object recognition on D26, test on D27). After the completion of the 28-day dosing period, all surviving animals in the study were euthanized, and their brains were rapidly collected for pathological analysis. (3) Pathological examination: 1) the restoration range: samples with a restoration area range of >30% are considered to be good in recovery, while samples with a restoration area range of ≤30% are considered to be poor in recovery. […] In addition, for the compound (I) low dose group and the compound (I) high dose group, the proportion values of animal samples having >10 erythrocyte-containing blood vessels in the restoration area were 100% and 92.3%, respectively, both being no less than 90%.

[4] = Pharmacokinetics of 3-n-butylphthalide in rat plasma (value in literature); format: in vivo; conditions: rats, p.o. 60 mg/kg vs i.v. 10 mg/kg; calculated based on the literature value of AUC0-inf
[5] = test system: Middle cerebral artery occlusion (MCAO) models of SD rats; experiment: Rat cerebral stroke model (MCAO), 28 days, grid walking test; format: in vivo; conditions: 60 mg/kg p.o. q.d, Mean ± SD
Description: (§1) Middle cerebral artery occlusion (MCAO) models of SD rata were constructed by using the suture occlusion method. The rats were administered with the test compound for 28 consecutive days. The pharmacodynamic evaluation on the test compound for cerebral stroke was obtained based on general observation and neurobehavioral assessment.
(§2) After anesthesia induction with 3.0% isoflurane in SD rats (240-280 g), the operation was performed and the right common carotid artery (CCA), and the right-side neck area was dissected to reveal the right common carotid artery (CCA), external carotid artery (ECA) and internal carotid artery (ICA). The ECA was ligated. The ICA was temporarily occluded. Sutures were threaded at both the proximal end and the distal end of CCA. The distal end was securely ligated, and a loosely tied knot was placed at the proximal end. A small incision was made on the CCA between these two sutures. A No. 4-0 suture was inserted through the incision of CCA and slowly and gently pushed into the ICA. The threading was stopped temporarily when reaching the artery clamp of ICA. The pre-ligation suture was further tightened. The artery clamp blocking the blood flow in the ICA was removed, allowing the suture occlusion to be advanced into the ICA until it entered the intracranial region. […] The insertion was stopped at the moment, and the time was recorded. The artery clamp on the CCA was removed and the incision was closed after no active bleeding was observed. The ischemic rats were placed at room temperature to keep their body temperature at 37° C., and anesthesia induction could be carried out 120 min later. The suture was slowly and gradually withdrawn when the rats were maintained under anesthesia, so that the proximal end of the suture returned to the ECA, thereby initiating reperfusion of the middle cerebral artery. Animals received the designated dosage immediately (within 10 min) after reperfusion. This dosing regimen continued once daily for a duration of 28 days, with the day of operation being defined as D1 (Day 1). A total of 5 groups were set, sham surgery group, model control group, NBP group (60 mg/kg, p.o., q.d), compound (I) low dose p.o. group (6 mg/kg, p.o., q.d), and a compound (I) high dose p.o. group (20 mg/kg, p.o., q.d). During administration, all animals were subjected to grid walking tests (D7, D14, D21, and D28, 4 times in total) and novel object recognition tests (adaptation for novel object recognition on D26, test on D27). After the completion of the 28-day dosing period, all surviving animals in the study were euthanized, and their brains were rapidly collected for pathological analysis.

[6] = test system: Middle cerebral artery occlusion (MCAO) models of SD rats; experiment: Rat cerebral stroke model (MCAO), 28 days, novel object recognition test; format: in vivo; conditions: 60 mg/kg p.o. q.d, Mean ± SD
Description: as §1, §2

[7] = rats, value in literature, cited from earlier work
[8] = brain, read-out: Measured value in brain tissues Concentration
[9] = plasma, read-out: Measured value in plasma Concentration

## CCC/C(O)=C1/C(=O)Oc2ccccc21 [Compound (I), (Z)-3-(1-hydroxybutylidene)benzofuran-2 (3H)-one]
[1]; p.o. 10 mg/kg vs i.v. 1 mg/kg
  F: 144.2%
[1]; rat, iv, i.v. 1 mg/kg, plasma
  AUC0-inf: 59.2 µg·h/mL
  AUC0-t: 52.5 µg·h/mL
  MRT inf: 9.8 h
  half-life: 450 min
[1]; rat, po, p.o. 10 mg/kg, plasma
  AUC0-inf: 854 µg·h/mL
  AUC0-t: 703 µg·h/mL
  Cmax: 56.5 µg/mL
  MRT inf: 13.2 h
  Tmax: 30 min
  half-life: 576 min
[2]; [8]
  concentration at 0.5 h: 8730 ng/g
  concentration at 1 h: 5730 ng/g
  concentration at 4 h: 5030 ng/g
  concentration at 24 h: 285 ng/g
[2]; [9]
  concentration at 0.5 h: 241 µg/mL
  concentration at 1 h: 192 µg/mL
  concentration at 4 h: 182 µg/mL
  concentration at 24 h: 23500 ng/mL
[3]; high dose 20 mg/kg p.o. q.d 28 days, N = 13, infarction restoration area, 20 mg/kg
  Number of animals with >10 erythrocyte-containing blood vessels: 12**
[3]; high dose 20 mg/kg p.o. q.d 28 days, N = 13, infarction restoration area, listed as compound (I), 20 mg/kg
  Number of animals with >10 erythrocyte-containing blood vessels: 12
[3]; low dose 6 mg/kg p.o. q.d 28 days, N = 12, infarction restoration area, 6 mg/kg
  Number of animals with >10 erythrocyte-containing blood vessels: 12**
[3]; low dose 6 mg/kg p.o. q.d 28 days, N = 12, infarction restoration area, listed as compound (I), 6 mg/kg
  Number of animals with >10 erythrocyte-containing blood vessels: 12

## CCCCC1OC(=O)c2ccccc21 (stereo not drawn) [NBP, 3-n-butylphthalide]
[4]
  F: 16.6* %
[2]; [8]
  concentration at 0.5 h: 28.5 ng/g
  concentration at 1 h: 22.8 ng/g
  concentration at 4 h: 10.2 ng/g
[2]; [9]
  concentration at 0.5 h: 0.026 µg/mL
  concentration at 1 h: 0.0191 µg/mL
  concentration at 4 h: 0.0072 µg/mL
  concentration at 24 h: 1.7 ng/mL
[5]; 1 W after operation, model control 7.24 ± 3.59
  Misstep frequency: 7.37±3.03 times
[5]; 2 W after operation, model control 5.35 ± 4.40
  Misstep frequency: 8.10 ± 2.97 times
[5]; 3 W after operation, model control 4.09 ± 3.140
  Misstep frequency: 6.27 ± 2.890 times
[5]; 4 W after operation, model control 1.59 ± 0.84
  Misstep frequency: 2.10 ± 1.46 times
[6]; model control 2.70 ± 2.22
  Sniffing time Familiar object: 1.60 ± 1.01 S
[6]; model control 3.82 ± 3.40
  Sniffing time Novel object: 4.94 ± 3.60 S
[6]; model control 45.19 ± 21.94
  Recognition index Familiar object (FRI): 29.03 ± 22.57%
[6]; model control 54.81 ± 21.94
  Recognition index Novel object (NRI): 70.97±22.57%
[3]; 60 mg/kg p.o. q.d 28 days, N = 14, model control 3 of 17
  Number of samples Restoration area > 30%: 3
[3]; 60 mg/kg p.o. q.d 28 days, N = 14, model control 14 of 17
  Number of samples Restoration area ≤ 30%: 11
[3]; 60 mg/kg p.o. q.d 28 days, N = 15, infarction restoration area, model control 10 of 17
  Number of animals with ≤10 erythrocyte-containing blood vessels: 1
[3]; 60 mg/kg p.o. q.d 28 days, model control 41.2
  Proportion of samples having >10 erythrocyte-containing blood vessels: 93.3%
[3]; 60 mg/kg p.o. q.d 28 days, restoration area >30%, model control 17.6
  Proportion of samples showing good recovery: 21.4%
[7]; i.v. 10 mg/kg
  AUC0-inf: 8620.0 ng·h/mL
  AUC0-t: 7230.0 ng·h/mL
  MRTinf: 2.4 h
  T1/2: 2.2 h
[7]; p.o. 60 mg/kg
  AUC0-inf: 8560.0 ng·h/mL
  AUC0-t: 7110.0 ng·h/mL
  Cmax: 2900.0 ng/mL
  MRTinf: 3.8 h
  T1/2: 2.83 h
  Tmax: 42 min
